Results on twelve molecules are retold here after BindingDB's records for patent US12319672 (Idorsia Pharmaceuticals, 2025).

The target of one test is Galectin-1 (Homo sapiens, UniProt P09382). Nature of the test: Inhibitory Activity Assay. How it is done: (§1) The inhibitory activity of compounds is determined in competitive binding assays. This spectrophotometric assay measures the binding of biotinylated human Gal-3 (hGal-3) or human Gal-1 (hGal-1), respectively, to a microplate-adsorbed glycoprotein, asialofetuin (ASF) (Proc Natl Acad Sci USA. 2013 Mar. 26; 110(13):5052-7.). Alternatively, and preferably, a human Gal-1 version in which all six cysteines are substituted by serines may be used.Briefly, compounds are serially diluted in DMSO (working dilutions). ASF-coated 384 well plates are supplemented with 22.8 μL/well of biotinylated hGal-3 or hGal-1 in assay buffer (i.e. 300-1000 ng/mL biotinylated hGal-3 or hGal-1) to which 1.2 μL of compound working dilutions are added and mixed.Plates are incubated for 3 hours at 4° C., then washed with cold assay buffer (3×50 uL), incubated for 1 hour with 25 μL/well of a streptavidin-peroxidase solution (diluted in assay buffer to 80 ng/mL) at 4° C., followed by further washing steps with assay buffer (3×50 uL). Finally, 25 μL/well of ABTS substrate is added.

In a further test the target is Galectin-3 (Homo sapiens, UniProt P17931). Nature of the test: Inhibitory Activity Assay. How it is done: as §1
Chain of Galectin-3 (P17931 whole entry): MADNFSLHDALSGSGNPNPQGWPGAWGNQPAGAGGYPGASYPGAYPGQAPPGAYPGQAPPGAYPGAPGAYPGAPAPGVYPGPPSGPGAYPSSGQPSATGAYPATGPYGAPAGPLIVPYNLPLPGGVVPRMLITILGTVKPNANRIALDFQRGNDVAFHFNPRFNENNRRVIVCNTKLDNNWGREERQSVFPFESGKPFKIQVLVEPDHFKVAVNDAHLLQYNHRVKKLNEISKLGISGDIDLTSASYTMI

Chain of Galectin-1 (P09382 whole entry): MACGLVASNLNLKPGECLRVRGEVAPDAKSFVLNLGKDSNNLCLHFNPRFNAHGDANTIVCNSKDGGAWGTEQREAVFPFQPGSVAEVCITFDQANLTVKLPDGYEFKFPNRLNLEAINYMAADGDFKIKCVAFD

As for `CC(C)(C)c1cc(C[C@H]2O[C@H](CO)[C@H](O)[C@H](n3cc(-c4ccc(Cl)c(F)c4F)nn3)[C@H]2O)on1` [US12319672, Example 1.302], the values for the IC50 on Galectin-1 and at Galectin-3 were 1000 nM and 36 nM, respectively.

Regarding `CO[C@@H]1[C@@H](n2cc(-c3ccc(Br)c(F)c3F)nn2)[C@@H](O)[C@@H](CO)O[C@@H]1Cc1cc(C2CCN(S(C)(=O)=O)CC2)on1` [US12319672, Example 1.155], the IC50 against Galectin-1 worked out at 1050 nM; on Galectin-3, 22 nM.

On to `CO[C@@H]1[C@@H](n2cc(-c3ccc(Cl)c(F)c3F)nn2)[C@@H](O)[C@@H](CO)O[C@@H]1Cc1cc(C2CCN(C(C)=O)CC2)on1` [US12319672, Example 1.163], for which the results for the IC50 against Galectin-1 and against Galectin-3 were 710 nM and 43 nM, respectively.

Regarding `Cc1nc2ccc(-c3cn([C@H]4[C@@H](O)[C@@H](CO)O[C@H](CC5CC(C6CCN(C(=O)OC(C)(C)C)CC6)=NO5)[C@@H]4O)nn3)cc2s1` (some centres undefined) [US12319672, Example 1.299], the IC50 was 3840 nM on Galectin-1 and 4040 nM against Galectin-3.

`CO[C@@H]1[C@@H](n2cc(-c3ccc(C)c(F)c3F)nn2)[C@@H](O)[C@@H](CO)O[C@@H]1Cc1cc(C2(O)CCC2)no1` [US12319672, Example 2.57]: the IC50 against Galectin-1 was 1450 nM; against Galectin-3, 81 nM.

As to `CO[C@@H]1[C@@H](n2cc(-c3cc(F)c(Cl)c(F)c3)nn2)[C@@H](O)[C@@H](CO)O[C@@H]1Cc1cc(C2CCN(C(C)=O)CC2)on1` [US12319672, Example 1.167], the half-maximal inhibitory concentration (IC50) on Galectin-1 worked out at 910 nM; on Galectin-3 it was 40 nM.

As for `CO[C@@H]1[C@@H](n2cc(-c3ccc(C)c(F)c3F)nn2)[C@H]2OC(C)(C)OC[C@H]2O[C@@H]1Cc1cc(C(C)c2ccccc2)no1` (some centres undefined) [US12319672, Example 1.341], the values for the IC50 on Galectin-1 and against Galectin-3 were 15700 nM and 200 nM, respectively.

In the case of `CO[C@@H]1[C@@H](n2cc(-c3cc(F)c(F)c(F)c3)nn2)[C@@H](O)[C@@H](CO)O[C@@H]1CC1=NOC(C(C)(C)O)C1` (some centres undefined) [US12319672, Example 1.68], the figures for the IC50 against Galectin-1 and on Galectin-3 were 5090 nM and 470 nM, respectively.

Regarding `CO[C@@H]1[C@@H](n2cc(-c3ccc(Cl)c(F)c3F)nn2)[C@@H](O)[C@@H](CO)O[C@@H]1Cc1cc(C2(C#N)CCCC2)on1` [US12319672, Example 1.279], the IC50 was determined as 3210 nM on Galectin-1 and 120 nM against Galectin-3.

Take `CC(=O)N1CCC(c2cc(C[C@H]3O[C@H](CO)[C@H](O)[C@H](n4cc(-c5cc(F)c(F)c(F)c5)nn4)[C@H]3O)no2)CC1` [US12319672, Example 3.17]: the IC50 came out at 960 nM against Galectin-1 and 46 nM against Galectin-3.

With `CO[C@@H]1[C@@H](n2cc(-c3ccc(F)c(F)c3F)nn2)[C@@H](O)[C@@H](CO)O[C@@H]1Cc1cc(-c2ccc(F)c(F)c2F)on1` [US12319672, Example 1.230], the IC50 at Galectin-1 is over 100000 nM; against Galectin-3 it was 540 nM.

`CO[C@@H]1[C@@H](n2cc(-c3ccc(F)c(F)c3F)nn2)[C@@H](O)[C@@H](CO)O[C@@H]1Cc1cc(C2(C#N)CCCC2)on1` [US12319672, Example 1.277]: the 50% inhibitory concentration (IC50) on Galectin-1 was determined as 1470 nM; on Galectin-3, 140 nM.
